Assay results as given in publication PMC10223470 (Molecules, 2023).

Legend:
mice [1] = assay: Amphetamine-induced hyperactivity in mice; assay type: in vivo; conditions: amphetamine 3 mg/kg s.c.; for effect on amphetamine-induced hyperactivity after 10 min / effect on amphetamine-induced hyperactivity after 30 min: p < 0.05 vs amphetamine group
Description: (§1) The experiments were carried out on 6 weeks old naive Swiss male mice (Experimental Medicine Center (OMD), Lublin, Poland), weighing 28–30 g. The cages with mice were located in air-conditioned rooms maintaining the ambient temperature within the range of 23–25 °C. The animals were provided with a natural 12 h day/night cycle, replicating the day and night mode. Each testing group was represented by 8–10 animals, depending on the research schedule. All experiments were conducted according to the National Institute of Health Guidelines for the Care and Use of Laboratory Animals (8th edition) and to the European Community Council Directive for the Care and Use of Laboratory Animals of 22 September 2010 (2010/63/EU) and were approved by the Local Ethical Committee (number of ethical approval: 147/2018).
(§2) Compound 17 (25, 50, 75 mg/kg) was suspended in 1% Tween 80 in saline solution and was administered intraperitoneally (i.p.) 60 min before the test. Diazepam (DZ, Relanium, Polfa, Poland) at a dose of 1 mg/kg was diluted in 0.9% saline containing 1% Tween 80 and was administered subcutaneously (s.c.), 60 min before the test. Imipramine hydrochloride (30 mg/kg, Sigma-Aldrich was administered intraperitoneally (i.p.) 60 min before the test. D-amphetamine sulfate (3 mg/kg; Sigma-Aldrich, USA) was given subcutaneously (s.c.). Prior to administration, the agent was dissolved in saline and injected 30 min before the test. Control animals received an (i.p.) or (s.c.) injection of a respective vehicle. All compounds were injected in a manner generally accepted in experimental pharmacology, in an amount of 10 mL/kg body weight.
(§3) The measurement of the spontaneous locomotor activity was carried out using the OptoVarimex 4 Auto-Track device (Columbus Instruments, Columbus, OH, USA). Tested animals are kept in cages for 30 min. Their activity was recorded as interruptions of the light beams after 10 and 30 min of the test, and it was calculated automatically as a traveled distance in cm (±SEM). To determine whether compound 17 has an influence on amphetamine-induced hyperactivity, each mouse received 17 (25, 50 and 75 mg/kg; i.p.) and amphetamine (3 mg/kg; s.c.) 30 min after injection of 17 or vehicle and then spontaneous locomotor activity was measured.

mice [2] = assay: Spontaneous locomotor activity in mice; assay type: in vivo; conditions: for Distance Traveled after 10 min / Distance Traveled after 30 min: mean ± SEM, n=10
Description: as §1, §2, §3

human 5-HT7 receptor = molecular target: T1, human 5-HT7 receptor (Homo sapiens, UniProt P34969); assay: Competition radioligand binding at human 5-HT7 receptor ([3H]-SB269970); conditions: mean ± SEM of 2 independent experiments, read-out: hu5-HT7 % inh. at 10 µM
T1 construct: expressed in transfected cells; host or cells: HEK293
T1 sequence (P34969 whole entry): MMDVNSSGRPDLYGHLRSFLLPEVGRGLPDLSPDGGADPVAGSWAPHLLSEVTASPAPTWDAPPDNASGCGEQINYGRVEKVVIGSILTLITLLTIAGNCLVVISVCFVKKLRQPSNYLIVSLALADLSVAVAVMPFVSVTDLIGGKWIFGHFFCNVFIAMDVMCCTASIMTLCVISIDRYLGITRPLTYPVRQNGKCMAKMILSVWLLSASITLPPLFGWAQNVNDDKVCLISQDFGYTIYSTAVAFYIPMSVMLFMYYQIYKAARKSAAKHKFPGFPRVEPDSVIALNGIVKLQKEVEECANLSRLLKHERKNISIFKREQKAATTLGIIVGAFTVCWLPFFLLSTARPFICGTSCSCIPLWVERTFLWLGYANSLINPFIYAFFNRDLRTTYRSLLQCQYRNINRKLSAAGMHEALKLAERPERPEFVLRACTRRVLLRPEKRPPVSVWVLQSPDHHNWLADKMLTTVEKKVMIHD
Description: (§4) Competition radioligand binding assays were performed on membranes isolated from cell lines stably expressing the cloned human receptors, which were either in-house or commercially available. […] Assays (250 μL assay final volume) were carried out in 96-well polypropylene plates in duplicate. In short, the suspension of appropriate membrane protein was incubated in an assay buffer with the addition of the corresponding radioligand, in the presence or absence of a tested compound or reference compound. […] After the incubation, the content of the test plates was transferred to 96 well plates with glass fiber filter GF/B or GF/C, previously pretreated with polyethyleneimine (PEI), and rapidly filtered with the use of vacuum, followed by rapid washing with cold (4 °C) wash buffer. After that, the filter plates were dried at 60 °C for 1 h. Then, 30 μL of liquid scintillation cocktail (UniverSol-ES, MP Biomedicals, Solon, OH, USA) was added to each well of the filter plates, and the radioactivity was measured in a MicroBeta^2 microplate scintillation counter (PerkinElmer, Madrid, Spain).
(§5) Competition binding curves were fitted to a one-site competition binding model (Fit Ki) with the use of Prism 7 software (GraphPad, San Diego, CA, USA). logKi (log of the equilibrium dissociation constant (Ki)) values were obtained after constraining the concentration of radioligand employed in the assay and its dissociation constant (KD) as determined in saturation radioligand binding assays.

human 5-HT1A receptor = molecular target: T2, human 5-HT1A receptor (Homo sapiens, UniProt P08908); assay: Competition radioligand binding at human 5-HT1A receptor ([3H]-8-OH-DPAT); conditions: mean ± SEM of 2 independent experiments, read-out: hu5-HT1A % inh. at 10 µM
T2 construct: expressed in transfected cells; host or cells: HEK293
T2 sequence (P08908 1-422): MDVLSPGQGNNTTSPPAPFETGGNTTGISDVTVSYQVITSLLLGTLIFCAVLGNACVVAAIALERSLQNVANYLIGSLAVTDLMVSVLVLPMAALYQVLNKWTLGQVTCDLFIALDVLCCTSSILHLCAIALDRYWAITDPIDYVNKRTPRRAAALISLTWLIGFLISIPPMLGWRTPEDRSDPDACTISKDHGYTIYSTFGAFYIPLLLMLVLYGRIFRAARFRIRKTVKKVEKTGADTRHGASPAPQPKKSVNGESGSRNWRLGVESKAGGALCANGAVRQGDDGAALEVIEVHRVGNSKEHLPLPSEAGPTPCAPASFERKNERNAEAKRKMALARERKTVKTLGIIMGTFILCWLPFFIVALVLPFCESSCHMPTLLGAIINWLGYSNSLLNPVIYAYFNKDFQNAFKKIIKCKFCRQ
Description: as §4, §5

[3] = 25 mg/kg i.p. 60 min before the test
[4] = 50 mg/kg i.p. 60 min before the test
[5] = 75 mg/kg i.p. 60 min before the test

O=C(CCN1C(=O)CSc2ccccc21)Nc1ccc(Cl)cc1 [Compound 17, N-(4-Chlorophenyl)-3-(3-oxo-2,3-dihydro-4H-benzo[b][1,4]thiazin-4-yl)propanamide]
effect on amphetamine-induced hyperactivity (mice [1]; 25 mg/kg i.p.): inactive
effect on amphetamine-induced hyperactivity after 10 min (mice [1]; 50 mg/kg i.p.): decreased
effect on amphetamine-induced hyperactivity after 30 min (mice [1]; 50 mg/kg i.p.): decreased
effect on amphetamine-induced hyperactivity after 10 min (mice [1]; 75 mg/kg i.p.): decreased
effect on amphetamine-induced hyperactivity after 30 min (mice [1]; 75 mg/kg i.p.): decreased
Distance Traveled after 10 min (mice [2]; [3]): 910.1 ± 139.3 cm
Distance Traveled after 30 min (mice [2]; [3]): 2003 ± 355.7 cm
Distance Traveled after 10 min (mice [2]; [4]): 855.9 ± 195.1 cm
Distance Traveled after 30 min (mice [2]; [4]): 2345 ± 616.0 cm
Distance Traveled after 10 min (mice [2]; [5]): 1200 ± 216.0 cm
Distance Traveled after 30 min (mice [2]; [5]): 2983 ± 595.8 cm
effect on locomotor activity versus the control group (mice [2]; 25, 50 and 75 mg/kg i.p., after 10 min and after 30 min): no statistically significant effects
inhibition at 10 µM (human 5-HT7 receptor): 5 ± 11%
inhibition at 10 µM (human 5-HT1A receptor): 29 ± 9%
